How the values were obtained:
Assay in all cases: relative viability (nuclei count vs DMSO), 5 days (fraction); higher = more cells survive
[1] = compound: CC1=CC(=CC=C1)NC2=NC(=CS2)C3=CC=NC=C3 + Cc1nc(NC(=O)N2CCC[C@H]2C(N)=O)sc1-c1ccnc(C(C)(C)C(F)(F)F)c1 [Alpelisib] (partner 2 µM)
Outline: (§1)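 Lung cancer cell lines were seeded in 1536-well plates and dosed by pin tool the next day, with either a single drug or a fixed anchor-drug dose combined with five library-drug doses (not always all listed) spaced in √10 steps. Five days later, one step fixed the cells and stained their nuclei (final 0.05% Triton X-100, 1% formaldehyde, 1 ug/ml Hoechst), and nuclei were counted on 4× images. Relative viability is the nuclei count in treated wells divided by the count in vehicle wells, and each value is the median of duplicate plates.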

Masitinib + Palbociclib = compound: Cc1ccc(NC(=O)c2ccc(CN3CCN(C)CC3)cc2)cc1Nc1nc(-c2cccnc2)cs1 [Masitinib] + CC(=O)c1c(C)c2cnc(Nc3ccc(N4CCNCC4)cn3)nc2n(C2CCCC2)c1=O [Palbociclib] (partner 0.5 µM)
Outline: as §1

Masitinib + Bortezomib = compound: Cc1ccc(NC(=O)c2ccc(CN3CCN(C)CC3)cc2)cc1Nc1nc(-c2cccnc2)cs1 [Masitinib] + CC(C)C[C@H](NC(=O)[C@H](Cc1ccccc1)NC(=O)c1cnccn1)B(O)O [Bortezomib] (partner 0.002 µM)
Outline: as §1

Masitinib + AZD7762 = compound: Cc1ccc(NC(=O)c2ccc(CN3CCN(C)CC3)cc2)cc1Nc1nc(-c2cccnc2)cs1 [Masitinib] + NC(=O)Nc1cc(-c2cccc(F)c2)sc1C(=O)N[C@H]1CCCNC1 [AZD7762] (partner 0.2 µM)
Outline: as §1

Cell Line	relative viability ([1]; first compound 0.08 µM)	relative viability ([1]; first compound 0.253 µM)	relative viability ([1]; first compound 0.8 µM)	relative viability ([1]; first compound 2.53 µM)	relative viability ([1]; first compound 8 µM)	relative viability (Masitinib + Palbociclib; first compound 0.01 µM)	relative viability (Masitinib + Palbociclib; first compound 0.03162 µM)	relative viability (Masitinib + Palbociclib; first compound 0.1 µM)	relative viability (Masitinib + Palbociclib; first compound 0.3162 µM)	relative viability (Masitinib + Palbociclib; first compound 1 µM)	relative viability (Masitinib + Bortezomib; first compound 0.01 µM)	relative viability (Masitinib + Bortezomib; first compound 0.03162 µM)	relative viability (Masitinib + Bortezomib; first compound 0.1 µM)	relative viability (Masitinib + Bortezomib; first compound 0.3162 µM)	relative viability (Masitinib + Bortezomib; first compound 1 µM)	relative viability (Masitinib + AZD7762; first compound 0.01 µM)	relative viability (Masitinib + AZD7762; first compound 0.03162 µM)	relative viability (Masitinib + AZD7762; first compound 0.1 µM)	relative viability (Masitinib + AZD7762; first compound 0.3162 µM)	relative viability (Masitinib + AZD7762; first compound 1 µM)
NCI-H1437	1.03	0.968	0.885	0.922	0.763	0.25	0.32	0.248	0.302	0.305	0.468	0.637	0.585	0.577	0.438	1.09	1.12	1.22	1.07	1.06
HOP-62	0.932	0.809	1.1	1.06	1.17	0.455	0.447	0.59	0.438	0.506	0.573	0.598	0.845	0.799	0.769	0.458	0.631	0.837	0.679	0.655
NCI-H2087	0.931	1.14	0.772	1.29	0.932	0.211	0.221	0.234	0.198	0.237	0.544	0.741	0.756	0.958	0.779	1.22	1.35	1.2	1.5	1.3

Source: the supplement of paper PMC10307832
